In ChEMBL document CHEMBL5143608, “Peptide-based long-acting co-agonists of GLP-1 and cholecystokinin 1 receptors as novel anti-diabesity agents” (Eur J Med Chem, 2022):
Calls of active or inactive are those of the source. No cut-off for these calls is given here. *1 amine or outer side, *2 acyl side, *3 side chain or, on linkers, in order; H or OH if unused. Where a SMILES comes first, the peptide text is derived from it. Side-chain parts run from the residue outwards. [ ]: non-standard residue; d: D form. The star is where a group is joined. γGlu = O=C(O)[C@H](CCC(=O)[*:2])N[*:1]; Palmitoyl = CCCCCCCCCCCCCCCC(=O)*; Aib = CC(C)(N)C(=O)O

Legend:
Mus musculus [1] = assay: Anti-diabesity activity against high fat diet-induced DIO C57BL/6 mouse model assessed as decrease in body weight at 25 nmol/kg, sc administered for 2 weeks; type: functional; settings: C57BL/6, 336 h, time 14 day
Mus musculus [2] = assay: Anti-diabesity activity against high fat diet-induced DIO C57BL/6 mouse model assessed as reduction in food intake at 25 nmol/kg, sc administered for 2 weeks; type: functional, organism-based; settings: time 14.0 day
Mus musculus [3] = assay: Anti-diabesity activity against high fat diet-induced DIO C57BL/6 mouse model assessed as reduction in fat mass accumulation at 25 nmol/kg, sc administered for 2 weeks and measured on day 15 by NMR analysis; type: functional, organism-based; settings: time 15.0 day
Mus musculus [4] = assay: Hypoglycemic activity in ICR mouse assessed as improvement in glucose tolerance at 25 nmol/kg, ip administered 30 min before oral glucose administration and measured upto 120 mins by OGTT; type: functional, organism-based
Mus musculus [5] = assay: Anorectic activity in ICR mouse assessed as decrease in food intake at 25 nmol/kg, ip and measured after 9 hrs; type: functional, organism-based
Mus musculus [6] = assay: Anorectic activity in ICR mouse assessed as decrease in food intake at 25 nmol/kg, ip and measured after 24 hrs; type: functional, organism-based
Mus musculus [7] = assay: Anti-diabesity activity against db/db mouse assessed as reduction in HbA1c level at 25 nmol/kg, sc administered every 2 days and measured on day 43; type: functional, organism-based; settings: time 43.0 day
Mus musculus [8] = assay: Anti-diabesity activity against db/db mouse assessed as reduction in fasting blood glucose level at 25 nmol/kg, sc administered every 2 days for 12 weeks; type: functional, organism-based
Mus musculus [9] = assay: Hypoglycemic activity in db/db mouse assessed as improvement in glucose tolerance at 25 nmol/kg, ip administered 30 min before oral glucose administration and measured upto 120 mins by OGTT; type: functional, organism-based
Mus musculus [10] = assay: Hypoglycemic activity in db/db mouse assessed as reduction in glucose excursion at 25 nmol/kg, ip administered 30 min before oral glucose administration and measured upto 120 mins by OGTT; type: functional, organism-based
Mus musculus [11] = assay: Insulinotropic activity in db/db mouse assessed as elevation of plasma insulin level at 25 nmol/kg, ip administered 30 min before oral glucose administration and measured upto 60 mins by ELISA; type: functional, organism-based; settings: time <= 90.0 min
Mus musculus [12] = assay: Anti-diabesity activity in DIO C57BL/6 mouse assessed as reduction in body weight at 10 nmol/kg, sc administered every 2 days for 10 days; type: functional; settings: time 10.0 day
Mus musculus [13] = assay: Anti-diabesity activity in DIO C57BL/6 mouse assessed as reduction in body weight at 25 nmol/kg, sc administered every 2 days for 10 days; type: functional; settings: time 10.0 day
Mus musculus [14] = assay: Anti-diabesity activity in DIO C57BL/6 mouse assessed as improvement in insulin sensitivity at 25 nmol/kg, sc administered every 2 days for 10 days by insulin tolerance test; type: functional, organism-based; settings: time 10.0 day
Mus musculus [15] = assay: Anti-diabesity activity against DIO C57BL/6 mouse assessed as reduction in body weight at 25 nmol/kg, sc administered every 2 days for 3 weeks; type: functional; settings: time 21.0 day
Mus musculus [16] = assay: Anti-diabesity activity against DIO C57BL/6 mouse assessed as reduction in cumulative food intake at 25 nmol/kg, sc administered every 2 days for 3 weeks; type: functional, organism-based; settings: time 21.0 day
Mus musculus [17] = assay: Anti-diabesity activity against DIO C57BL/6 mouse assessed as decrease in fat mass at 25 nmol/kg, sc administered every 2 days for 3 weeks; type: functional, organism-based; settings: time 21.0 day
Mus musculus [18] = assay: Anti-diabesity activity against DIO C57BL/6 mouse assessed as reduction in fasted blood glucose level at 25 nmol/kg, sc administered every 2 days for 3 weeks; type: functional, organism-based; settings: time 21.0 day
Mus musculus [19] = assay: Anti-diabesity activity against DIO C57BL/6 mouse assessed as improvement in glucose tolerance at 25 nmol/kg, sc administered every 2 days for 3 weeks by OGTT; type: functional, organism-based; settings: time 21.0 day
Mus musculus [20] = assay: Anti-diabesity activity against DIO C57BL/6 mouse assessed as reduction in cholesterol level in serum at 25 nmol/kg, sc administered every 2 days for 3 weeks; type: functional, organism-based; settings: time 21.0 day
Mus musculus [21] = assay: Anti-diabesity activity against DIO C57BL/6 mouse assessed as reduction in triglycerides level in serum at 25 nmol/kg, sc administered every 2 days for 3 weeks; type: functional, organism-based; settings: time 21.0 day
Mus musculus [22] = assay: Anti-diabesity activity against db/db mouse assessed as reduction in body weight at 25 nmol/kg, sc administered every 2 days for 3 weeks; type: functional, organism-based; settings: time 21.0 day
Mus musculus [23] = assay: Anti-diabesity activity against db/db mouse assessed as reduction in cumulative food intake at 25 nmol/kg, sc administered every 2 days for 3 weeks; type: functional, organism-based; settings: time 21.0 day
Mus musculus [24] = assay: Anti-diabesity activity against db/db mouse assessed as reduction in fasted blood glucose level at 25 nmol/kg, sc administered every 2 days for 3 weeks; type: functional, organism-based; settings: time 21.0 day
Mus musculus [25] = assay: Anti-diabesity activity against db/db mouse assessed as increase in islet area at 25 nmol/kg, sc administered every 2 days for 3 weeks by H and E staining based analysis; type: functional, organism-based; settings: time 21.0 day
Mus musculus [26] = assay: Anti-diabesity activity against db/db mouse assessed as increase in islet number at 25 nmol/kg, sc administered every 2 days for 3 weeks by H and E staining based analysis; type: functional, organism-based; settings: time 21.0 day
Mus musculus [27] = assay: Anti-diabesity activity against db/db mouse assessed as enhanced islets insulin content at 25 nmol/kg, sc administered every 2 days for 3 weeks by immunohistochemistry staining; type: functional, organism-based; settings: time 21.0 day
Mus musculus [28] = assay: Anti-diabesity activity against db/db mouse assessed as improvement in glucose tolerance at 25 nmol/kg, sc administered every 2 days for 12 weeks by OGTT; type: functional, organism-based
Mus musculus [29] = assay: Anti-diabesity activity in DIO C57BL/6 mouse assessed as reduction in body weight at 100 nmol/kg, sc administered every 2 days for 10 days; type: functional; settings: time 10.0 day
BRIN-BD11 = assay: Insulinotropic activity in rat BRIN-BD11 cells assessed as increase in insulin secretion incubated for 20 mins by radioimmunoassay; type: functional, cell-based; settings: DDE = dose-dependent effect
Mus musculus [30] = assay: Anti-diabesity activity against db/db mouse assessed as HbA1c level at 25 nmol/kg, sc administered every 2 days for 3 weeks; type: functional, organism-based; settings: time 21.0 day
Mus musculus [31] = assay: Anti-diabesity activity against db/db mouse assessed as improvement in glucose tolerance at 25 nmol/kg, sc administered every 2 days for 3 weeks by OGTT; type: functional, organism-based; settings: time 21.0 day
Mus musculus [32] = assay: Anti-diabesity activity against db/db mouse assessed as reduction in HbA1c level at 25 nmol/kg, sc administered every 2 days for 12 weeks; type: functional, organism-based
Mus musculus [33] = assay: Anti-diabesity activity against db/db mouse assessed as improvement in glucose tolerance level at 25 nmol/kg, sc administered every 2 days for 6 weeks followed by saline treatment for 6 weeks and measured during first 6 weeks by OGTT; type: functional, organism-based
Mus musculus [34] = assay: Anti-diabesity activity against db/db mouse assessed as reduction in fasting blood glucose level at 25 nmol/kg, sc administered every 2 days for 6 weeks followed by saline treatment for 6 weeks and measured during first 6 weeks; type: functional, organism-based
Mus musculus [35] = assay: Anti-diabesity activity against db/db mouse assessed as improvement in glucose tolerance level at 25 nmol/kg, sc administered every 2 days for 6 weeks followed by saline treatment for 6 weeks and measured during second 6 weeks by OGTT; type: functional, organism-based
Mus musculus [36] = assay: Anti-diabesity activity against db/db mouse assessed as reduction in fasting blood glucose level at 25 nmol/kg, sc administered every 2 days for 6 weeks followed by saline treatment for 6 weeks and measured during second 6 weeks; type: functional, organism-based
Mus musculus [37] = assay: Anti-diabesity activity against db/db mouse assessed as reduction in HbA1c level at 25 nmol/kg, sc administered every 2 days for 6 weeks followed by saline treatment for 6 weeks and measured during first 6 weeks; type: functional, organism-based
Mus musculus [38] = assay: Anti-diabesity activity against db/db mouse assessed as reduction in HbA1c level at 25 nmol/kg, sc administered every 2 days for 6 weeks followed by saline treatment for 6 weeks and measured during second 6 weeks; type: functional, organism-based
Mus musculus [39] = assay: Anti-diabesity activity against db/db mouse assessed as increase in insulin sensitivity by measuring reduction in plasma insulin level at 25 nmol/kg, sc administered every 2 days for 12 weeks by ELISA; type: functional, organism-based
Mus musculus [40] = assay: Anti-diabesity activity against db/db mouse assessed as increase in pancreas mass at 25 nmol/kg, sc administered every 2 days for 12 weeks; type: functional, organism-based
Mus musculus [41] = assay: Anti-diabesity activity against db/db mouse assessed as increase in IOD of insulin in pancreas at 25 nmol/kg, sc administered every 2 days for 12 weeks by immunohistochemistry; type: functional, organism-based

Molecule: CCCCCCCCCCCCCCCC(=O)N[C@@H](CCC(=O)NCCCC[C@H](NC(=O)[C@H](C)NC(=O)[C@H](C)NC(=O)[C@H](CCC(=O)O)NC(=O)[C@H](CCC(=O)O)NC(=O)[C@H](CCC(=O)O)NC(=O)[C@H](CC(C)C)NC(=O)[C@@H](NC(=O)[C@H](CCC(=O)O)NC(=O)[C@@H](NC(=O)[C@@H](NC(=O)[C@H](CC(=O)O)NC(=O)[C@H](CC(N)=O)NC(=O)[C@@H](NC(=O)[C@H](Cc1ccc(O)cc1)NC(=O)[C@@H](NC(=O)CNC(=O)[C@H](CCC(=O)O)NC(=O)C(C)(C)NC(=O)[C@@H](N)Cc1cnc[nH]1)[C@@H](C)O)[C@@H](C)O)C(C)C)[C@@H](C)O)[C@@H](C)O)C(=O)N[C@@H](CCC(=O)O)C(=O)N[C@@H](Cc1ccccc1)C(=O)N[C@H](C(=O)N[C@@H](CCC(=O)O)C(=O)N[C@@H](Cc1c[nH]c2ccccc12)C(=O)N[C@@H](CC(C)C)C(=O)N[C@H](C(=O)N[C@@H](CCCCN)C(=O)NCC(=O)N[C@@H](CCCCN)C(N)=O)[C@@H](C)CC)[C@@H](C)CC)C(=O)O (H-H[Aib]EGTYTNDVTETLEEEAAK([γGlu-Palmitoyl])EFIEWLIKGK-NH2)
- inhibition in vivo at 0.025 µmol/kg (Mus musculus [1]): 12.1%
- Activity (Mus musculus [2]): Active
- Activity (Mus musculus [3]): Active
- Activity (Mus musculus [4]): Active
- Activity (Mus musculus [5]): Active
- Activity (Mus musculus [6]): Active

Molecule: SEMAGLUTIDE
- Activity (Mus musculus [7]): Active
- Activity (Mus musculus [8]): Active
- Activity (Mus musculus [9]): Active
- Activity (Mus musculus [10]): Active
- Activity (Mus musculus [11]): Active
- inhibition (Mus musculus [12]): 8.2%
- inhibition (Mus musculus [13]): 12.5%
- Activity (Mus musculus [14]): Active
- inhibition (Mus musculus [15]): 14.9%
- Activity (Mus musculus [16]): Active
- Activity (Mus musculus [17]): Active
- Activity (Mus musculus [18]): Active
- Activity (Mus musculus [19]): Active
- Activity (Mus musculus [20]): Active
- Activity (Mus musculus [21]): Active
- Activity (Mus musculus [22]): Active
- Activity (Mus musculus [23]): Active
- Activity (Mus musculus [24]): Active
- Activity (Mus musculus [25]): Active
- Activity (Mus musculus [26]): Active
- Activity (Mus musculus [27]): Active
- Activity (Mus musculus [28]): Active
- inhibition (Mus musculus [29]): 17.3%
- Activity (BRIN-BD11): Dde
- Activity (Mus musculus [30]): Active
- Activity (Mus musculus [31]): Active
- Activity (Mus musculus [32]): Active
- Activity (Mus musculus [33]): Active
- Activity (Mus musculus [34]): Active
- Activity (Mus musculus [35]): Active
- Activity (Mus musculus [36]): Active
- Activity (Mus musculus [37]): Active
- Activity (Mus musculus [38]): Active
- Activity (Mus musculus [39]): Active
- Activity (Mus musculus [40]): Active
- Activity (Mus musculus [41]): Active
